# Measurements: PMC5914168 (ChemMedChem, 2017)
# Several values for one entry are separate records, joined by “and”; a condition that tells them apart may be missing. Equal values may be shown once. Read-outs that look alike come from different tables or passages of the source.
# Assays:
# [1] = biological target: BMP2K kinase domain (38-345) (Homo sapiens, UniProt Q9NSY1); assay: TR-FRET ligand binding displacement assay, BMP2K
# [2] = biological target: STK16 kinase domain (13-305) (Homo sapiens, UniProt O75716); assay: TR-FRET ligand binding displacement assay, STK16
# [3] = biological target: AAK1 kinase domain (31-396) (Homo sapiens, UniProt Q2M2I8); assay: TR-FRET ligand binding displacement assay, AAK1
# [4] = biological target: T1, GAK kinase domain (12-347) (Homo sapiens, UniProt O14976); assay: TR-FRET ligand binding displacement assay, GAK; conditions: for fold drop in GAK potency: relative to 1; for NAK selectivity (ratio of GAK Ki and Ki of nearest NAK family member): selectivity against the nearest NAK family member
# T1 sequence (O14976 12-347): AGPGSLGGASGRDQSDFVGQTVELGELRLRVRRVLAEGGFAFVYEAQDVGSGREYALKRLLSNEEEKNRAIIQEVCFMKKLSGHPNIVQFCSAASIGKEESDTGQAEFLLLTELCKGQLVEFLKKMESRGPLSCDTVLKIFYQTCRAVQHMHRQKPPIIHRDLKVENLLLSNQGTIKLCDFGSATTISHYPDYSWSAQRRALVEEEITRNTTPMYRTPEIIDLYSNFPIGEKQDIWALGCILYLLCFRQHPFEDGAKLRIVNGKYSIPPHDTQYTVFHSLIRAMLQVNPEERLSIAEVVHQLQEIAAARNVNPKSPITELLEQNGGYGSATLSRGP
# [5] = biological target: T2, N-terminal Nano Luciferase/GAK fusion (NL-GAK) in HEK293 cells (Homo sapiens, UniProt O14976); assay: GAK nanoBRET cellular target engagement assay; conditions: for IC50: NanoBRET GAK IC50, HEK293 cells, 8-point dose response, average of 2 experiments
# T2 sequence (O14976 1-1311): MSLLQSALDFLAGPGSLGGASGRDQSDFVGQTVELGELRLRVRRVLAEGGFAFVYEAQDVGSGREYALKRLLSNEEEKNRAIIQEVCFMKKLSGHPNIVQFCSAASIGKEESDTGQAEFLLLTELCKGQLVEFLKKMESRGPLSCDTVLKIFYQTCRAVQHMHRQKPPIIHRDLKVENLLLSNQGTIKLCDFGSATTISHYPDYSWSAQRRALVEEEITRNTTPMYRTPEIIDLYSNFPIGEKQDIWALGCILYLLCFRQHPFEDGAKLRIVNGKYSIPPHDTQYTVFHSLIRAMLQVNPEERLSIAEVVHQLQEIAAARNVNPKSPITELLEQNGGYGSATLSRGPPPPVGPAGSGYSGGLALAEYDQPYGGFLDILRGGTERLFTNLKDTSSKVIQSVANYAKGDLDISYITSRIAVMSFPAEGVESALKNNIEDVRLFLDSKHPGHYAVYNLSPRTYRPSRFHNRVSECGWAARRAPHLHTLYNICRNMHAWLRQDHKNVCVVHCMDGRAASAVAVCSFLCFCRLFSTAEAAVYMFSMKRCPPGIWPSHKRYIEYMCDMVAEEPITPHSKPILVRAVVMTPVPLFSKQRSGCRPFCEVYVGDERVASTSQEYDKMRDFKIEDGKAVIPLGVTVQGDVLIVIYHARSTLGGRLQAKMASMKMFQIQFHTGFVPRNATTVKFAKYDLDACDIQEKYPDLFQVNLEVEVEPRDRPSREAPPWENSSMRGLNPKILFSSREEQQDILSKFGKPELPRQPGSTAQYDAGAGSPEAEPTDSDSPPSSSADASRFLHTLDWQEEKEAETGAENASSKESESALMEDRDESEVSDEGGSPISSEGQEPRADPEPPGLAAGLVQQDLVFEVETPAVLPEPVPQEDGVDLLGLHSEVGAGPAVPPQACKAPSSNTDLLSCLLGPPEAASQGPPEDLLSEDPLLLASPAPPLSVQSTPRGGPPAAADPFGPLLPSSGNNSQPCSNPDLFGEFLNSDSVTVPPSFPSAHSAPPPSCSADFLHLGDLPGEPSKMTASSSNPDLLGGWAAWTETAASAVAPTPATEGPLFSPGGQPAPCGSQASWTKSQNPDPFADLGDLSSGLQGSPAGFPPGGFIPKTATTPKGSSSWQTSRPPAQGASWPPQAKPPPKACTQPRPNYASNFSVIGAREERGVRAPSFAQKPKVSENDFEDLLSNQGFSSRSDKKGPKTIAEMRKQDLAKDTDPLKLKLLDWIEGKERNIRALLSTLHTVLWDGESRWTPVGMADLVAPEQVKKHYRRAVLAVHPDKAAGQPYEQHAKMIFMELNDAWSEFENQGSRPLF
# [6] = read-out: Binding displacement assay Ki BMP2K, TR-FRET, 16-point dose response
# Chain of STK16 kinase domain (13-305) (O75716 13-305): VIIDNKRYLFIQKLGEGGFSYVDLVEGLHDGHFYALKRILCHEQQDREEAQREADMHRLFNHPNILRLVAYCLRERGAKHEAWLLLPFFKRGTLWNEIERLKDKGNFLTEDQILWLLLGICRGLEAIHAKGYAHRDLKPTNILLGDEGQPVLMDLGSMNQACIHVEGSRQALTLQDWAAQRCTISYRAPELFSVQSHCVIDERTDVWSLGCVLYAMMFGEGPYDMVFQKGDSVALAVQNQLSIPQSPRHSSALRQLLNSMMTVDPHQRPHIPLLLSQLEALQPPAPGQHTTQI
# Chain of BMP2K kinase domain (38-345) (Q9NSY1 38-345): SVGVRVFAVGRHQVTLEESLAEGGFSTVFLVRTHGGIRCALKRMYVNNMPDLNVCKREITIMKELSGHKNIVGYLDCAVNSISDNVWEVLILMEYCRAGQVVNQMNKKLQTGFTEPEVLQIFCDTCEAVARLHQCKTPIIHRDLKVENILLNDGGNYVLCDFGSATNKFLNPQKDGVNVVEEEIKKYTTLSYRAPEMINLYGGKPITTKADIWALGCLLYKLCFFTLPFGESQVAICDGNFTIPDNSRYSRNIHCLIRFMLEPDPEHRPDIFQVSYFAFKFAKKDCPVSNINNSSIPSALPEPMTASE
# Chain of AAK1 kinase domain (31-396) (Q2M2I8 31-396): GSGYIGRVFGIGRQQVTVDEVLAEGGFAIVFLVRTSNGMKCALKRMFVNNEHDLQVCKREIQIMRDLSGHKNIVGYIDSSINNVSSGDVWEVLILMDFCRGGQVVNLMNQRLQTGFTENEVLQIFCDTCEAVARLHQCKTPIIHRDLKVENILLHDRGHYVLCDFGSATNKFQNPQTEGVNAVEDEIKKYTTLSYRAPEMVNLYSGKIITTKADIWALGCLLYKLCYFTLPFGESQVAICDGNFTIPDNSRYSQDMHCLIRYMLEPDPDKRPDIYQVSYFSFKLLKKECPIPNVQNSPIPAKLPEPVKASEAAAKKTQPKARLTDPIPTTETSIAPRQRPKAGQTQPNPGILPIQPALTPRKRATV
compound,measurement,setting,value
"6,7-Dimethoxy-N-(3,4,5-trimethoxyphenyl)quinolin-4-amine [Compound 57]",Ki,[1]; [6],19 µM
"COc1cc(Nc2ccnc3ccc(C(F)(F)F)cc23)cc(OC)c1OC [Compound 1, 6-(Trifluoromethyl)-N-(3,4,5-trimethoxyphenyl)quinolin-4-amine]",Ki,[1],> 100 µM
same,Ki,[2],17 µM
same,Ki,[3],54 µM
"COc1cc(Nc2ccnc3ccc(C(F)(F)F)cc23)cc(OC)c1 [Compound 4, N-(3,5-Dimethoxyphenyl)-6-(trifluoromethyl)quinolin-4-amine]",Ki,[1],85 µM
same,Ki,[4],0.054 µM
same,fold drop in GAK potency,[4],10 fold
same,NAK selectivity (ratio of GAK Ki and Ki of nearest NAK family member),[4],640
same,Ki,[2],52 µM
same,Ki,[3],34 µM
"COc1ccc(Nc2ccnc3ccc(C(F)(F)F)cc23)cc1OC [Compound 5, N-(3,4-Dimethoxyphenyl)-6-(trifluoromethyl)quinolin-4-amine]",Ki,[1],44 µM
same,Ki,[4],0.058 µM
same,fold drop in GAK potency,[4],10 fold
same,NAK selectivity (ratio of GAK Ki and Ki of nearest NAK family member),[4],420
same,Ki,[2],24 µM
same,Ki,[3],24 µM
"COc1ccc(Nc2ccnc3ccc(C(F)(F)F)cc23)c(OC)c1 [Compound 6, N-(2,4-Dimethoxyphenyl)-6-(trifluoromethyl)quinolin-4-amine]",Ki,[1],> 100 µM
same,Ki,[4],0.86 µM
same,NAK selectivity (ratio of GAK Ki and Ki of nearest NAK family member),[4],81
same,Ki,[2],70 µM
same,Ki,[3],71 µM
"COc1ccc(OC)c(Nc2ccnc3ccc(C(F)(F)F)cc23)c1 [Compound 7, N-(2,5-Dimethoxyphenyl)-6-(trifluoromethyl)quinolin-4-amine]",Ki,[1],> 100 µM
same,Ki,[4],0.14 µM
same,NAK selectivity (ratio of GAK Ki and Ki of nearest NAK family member),[4],420
same,Ki,[2],58 µM
same,Ki,[3],80 µM
"COc1ccc(Nc2ccnc3ccc(C(F)(F)F)cc23)cc1 [Compound 8, N-(4-Methoxyphenyl)-6-(trifluoromethyl)quinolin-4-amine]",Ki,[1],75 µM
same,Ki,[4],0.73 µM
same,fold drop in GAK potency,[4],100 fold
same,NAK selectivity (ratio of GAK Ki and Ki of nearest NAK family member),[4],26
same,Ki,[2],19 µM
same,Ki,[3],56 µM
"COc1ccccc1Nc1ccnc2ccc(C(F)(F)F)cc12 [Compound 10, N-(2-Methoxyphenyl)-6-(trifluoromethyl)quinolin-4-amine]",Ki,[1],11 µM
"FC(F)(F)c1ccc2nccc(Nc3ccc4c(c3)OCCO4)c2c1 [Compound 12, N-(2,3-Dihydrobenzo[b][1,4]dioxin-6-yl)-6-(trifluoromethyl)quinolin-4-amine]",Ki,[1],56 µM
same,NAK selectivity (ratio of GAK Ki and Ki of nearest NAK family member),[4],14
"COc1cc(Nc2ncnc3ccc(C(F)(F)F)cc23)cc(OC)c1OC [Compound 13, 6-(Trifluoromethyl)-N-(3,4,5-trimethoxyphenyl)quinazolin-4-amine]",NAK selectivity (ratio of GAK Ki and Ki of nearest NAK family member),[4],73
"COc1cc(Nc2ncnc3ccc(C(F)(F)F)cc23)cc(OC)c1 [Compound 14, N-(3,5-Dimethoxyphenyl)-6-(trifluoromethyl)quinazolin-4-amine]",Ki,[1]; [6],> 100 µM
same,NAK selectivity (ratio of GAK Ki and Ki of nearest NAK family member),[4],26
same,Ki,"[2]; read-out: Binding displacement assay Ki STK16, TR-FRET, 16-point dose response",8 µM
same,Ki,"[3]; read-out: Binding displacement assay Ki AAK1, TR-FRET, 16-point dose response",> 100 µM
"COc1ccc(Nc2ncnc3ccc(C(F)(F)F)cc23)cc1 [Compound 15, N-(4-Methoxyphenyl)-6-(trifluoromethyl)quinazolin-4-amine]",Ki,[1],> 100 µM
same,NAK selectivity (ratio of GAK Ki and Ki of nearest NAK family member),[4],1.5
"CS(=O)(=O)c1cccc(Nc2ccnc3ccc(C(F)(F)F)cc23)c1 [Compound 37, N-(3-(Methylsulfonyl)phenyl)-6-(trifluoromethyl)quinolin-4-amine]",STK16 affinity relative to GAK,[2],≤ 2 fold
"CC(C)(C)Oc1ccc(Nc2ccnc3ccc(C(F)(F)F)cc23)cc1 [Compound 39, N-(4-(tert-Butoxy)phenyl)-6-(trifluoromethyl)quinolin-4-amine]",range of affinity across all four NAK family kinases,"[4]; GAK, AAK1, BMP2K, STK16",≤ 8 fold
"COc1cc(Nc2ccnc3ccccc23)cc(OC)c1OC [Compound 41, N-(3,4,5-Trimethoxyphenyl)quinolin-4-amine]",Ki,[1],> 100 µM
same,fold drop in GAK potency,[4],10 fold
same,NAK selectivity (ratio of GAK Ki and Ki of nearest NAK family member),[4],>2500
same,Ki,[2],> 100 µM
same,Ki,[3],> 100 µM
same,IC50,[5],0.78 µM
same,fold decrease in cellular potency,"[5]; nanoBRET, relative to 1",4 fold
"COc1cc(Nc2ccnc3ccc(F)cc23)cc(OC)c1OC [Compound 42, 6-Fluoro-N-(3,4,5-trimethoxyphenyl)quinolin-4-amine]",Ki,[1],> 100 µM
same,Ki,[2],> 100 µM
same,Ki,[3],83 µM
"COc1cc(Nc2ccnc3cc(F)ccc23)cc(OC)c1OC [Compound 43, 7-Fluoro-N-(3,4,5-trimethoxyphenyl)quinolin-4-amine]",Ki,[1],> 100 µM
same,Ki,[2],> 100 µM
same,Ki,[3],44 µM
"COc1cc(Nc2ccnc3ccc(C(C)(C)C)cc23)cc(OC)c1OC [Compound 45, 6-(tert-Butyl)-N-(3,4,5-trimethoxyphenyl)quinolin-4-amine]",Ki,[1],> 100 µM
same,Ki,[4],0.0081 µM
same,Ki,[3],> 100 µM
same,IC50,[5],0.33 µM
"COc1cc(Nc2ccnc3ccc(C#N)cc23)cc(OC)c1OC [Compound 46, 4-((3,4,5-Trimethoxyphenyl)amino)quinoline-6-carbonitrile]",IC50,[5],~0.35 µM and 0.35 µM
"COc1cc(Nc2ccnc3ccc(S(C)(=O)=O)cc23)cc(OC)c1OC [Compound 47, 6-(Methylsulfonyl)-N-(3,4,5-trimethoxyphenyl)quinolin-4-amine]",Ki,[1],> 100 µM
"COc1ccc2nccc(Nc3cc(OC)c(OC)c(OC)c3)c2c1 [Compound 48, 6-Methoxy-N-(3,4,5-trimethoxyphenyl)quinolin-4-amine]",Ki,[1],> 100 µM
same,Ki,[2],> 100 µM
same,Ki,[3],> 100 µM
"COc1ccc2c(Nc3cc(OC)c(OC)c(OC)c3)ccnc2c1 [Compound 50, 7-Methoxy-N-(3,4,5-trimethoxyphenyl)quinolin-4-amine]",Ki,[1],> 100 µM
same,NAK selectivity (ratio of GAK Ki and Ki of nearest NAK family member),[4],22000
same,Ki,[2],> 100 µM
same,Ki,[3],58 µM
"COc1cc(Nc2ccnc3cc(C(F)(F)F)ccc23)cc(OC)c1OC [Compound 51, 7-(Trifluoromethyl)-N-(3,4,5-trimethoxyphenyl)quinolin-4-amine]",NAK selectivity (ratio of GAK Ki and Ki of nearest NAK family member),[4],15000
"COc1cc(Nc2ccnc3cc(C#N)ccc23)cc(OC)c1OC [Compound 52, 4-((3,4,5-Trimethoxyphenyl)amino)quinoline-7-carbonitrile]",Ki,[1],> 100 µM
same,NAK selectivity (ratio of GAK Ki and Ki of nearest NAK family member),[4],9300
"C#Cc1cccc(Nc2ccnc3cc(OC)c(OC)cc23)c1 [Compound 55, N-(3-Ethynylphenyl)-6,7-dimethoxyquinolin-4-amine]",Ki,[1],2.4 µM
same,Ki,[4],0.0035 µM
same,NAK selectivity (ratio of GAK Ki and Ki of nearest NAK family member),[4],260
same,Ki,[2],19 µM
same,Ki,[3],0.9 µM
"COc1cc2nccc(Nc3cccc(C(C)=O)c3)c2cc1OC [Compound 56, 1-(3-((6,7-dimethoxyquinolin-4-yl)amino)phenyl)ethan-1-one]",Ki,[1],0.68 µM
same,Ki,[4],0.4 µM
same,fold reduction in GAK activity,[4]; relative to 49,100 fold
same,Ki,[2],1.5 µM
same,Ki,[3],0.26 µM
